Laboratory results reported in PMC11258682, “Mechanoresponsive Protein Crystals for NADH Recycling in Multicycle Enzyme Reactions” (Journal of the American Chemical Society, 2024).

Target: Cry3Aa (Bacillus thuringiensis, UniProt P0A379)
Settings: solid crystals, non-specific electrostatic adsorption likely; no PEI

Chain of Cry3Aa (P0A379 58-644 limits assumed): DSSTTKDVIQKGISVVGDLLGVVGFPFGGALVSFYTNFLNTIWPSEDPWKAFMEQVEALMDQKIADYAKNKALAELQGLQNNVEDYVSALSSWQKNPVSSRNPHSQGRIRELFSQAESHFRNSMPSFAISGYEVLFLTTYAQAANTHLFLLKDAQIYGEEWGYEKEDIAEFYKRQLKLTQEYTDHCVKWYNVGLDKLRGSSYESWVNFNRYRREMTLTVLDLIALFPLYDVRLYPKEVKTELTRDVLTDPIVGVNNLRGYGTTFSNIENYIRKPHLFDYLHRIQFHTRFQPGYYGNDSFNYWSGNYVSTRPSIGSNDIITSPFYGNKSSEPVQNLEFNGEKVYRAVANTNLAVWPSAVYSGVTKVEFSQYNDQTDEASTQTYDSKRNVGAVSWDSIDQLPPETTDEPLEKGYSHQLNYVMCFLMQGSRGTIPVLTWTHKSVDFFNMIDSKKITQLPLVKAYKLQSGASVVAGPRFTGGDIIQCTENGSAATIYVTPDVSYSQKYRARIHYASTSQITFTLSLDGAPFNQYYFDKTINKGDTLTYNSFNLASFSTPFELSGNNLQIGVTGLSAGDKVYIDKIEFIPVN

## NC(=O)C1=CN([C@@H]2O[C@H](COP(=O)(O)OP(=O)(O)OC[C@H]3O[C@@H](n4cnc5c(N)ncnc54)[C@H](O)[C@@H]3O)[C@@H](O)[C@H]2O)C=CC1 [NADH]
  amount of NADH bound: 6 ± 2 µmol/g
